We go through 5 compounds from patent US11980630B2 (priority 2017, dated 2024).

One data set has as its system HeLa cells. The settings on record: human.
In the next data set the test system is MARV (Ci67). Description: organism not typed. Type of data set: cell-based, Marburg virus. As to conditions: for EC50: HeLa.
For data set [1], the system named is recombinant reporter EBOV. Description: microbe, parasite or virus in culture. Type of data set: cell-based, Ebola virus. The settings on record: for EC50: Zaire ebolavirus.
In the next data set the test system is Rift Valley Fever. As to the kind of experiment: microbe, parasite or virus in culture. Type of data set: cell-based. The settings on record: Huh-7, read-out: Rift Valley Fever EC50.
The subject of a further data set is Lassa Virus. As to the kind of experiment: microbe, parasite or virus in culture. The format is cell-based. The settings on record: Mammarenavirus lassaense, Huh-7, read-out: Lassa Virus EC50.
The next data set relates to SUDV (Gulu). As to the kind of experiment: microbe, parasite or virus in culture. As to conditions: for EC50: Sudan ebolavirus, HeLa. Type of data set: cell-based, Sudan virus.
Another data set has as its system EBOV (Makona). As to the kind of experiment: microbe, parasite or virus in culture. The settings on record: for EC50: Zaire ebolavirus, HeLa. The format is cell-based, Ebola virus.
A further data set concerns Huh7 cells. The settings on record: human.
Another data set concerns the target T1, RSV MTase (Human respiratory syncytial virus A, UniProt P28887).
T1 construct: RSV MTase: 4 μM
As to the kind of experiment: biochemical. The format is biochemical.

Data set [2] concerns the target MERS polymerase complex (12HC/7HC8) (Middle East respiratory syndrome-related coronavirus, UniProt K9N7C7). Type of data set: biochemical.
For another data set, the target named is T2, hMPV MTase (Human metapneumovirus, UniProt Q6WB93).
T2 construct: hMPV MTase: 1 μM
T2 sequence (Q6WB93 1599-2005 limits assumed): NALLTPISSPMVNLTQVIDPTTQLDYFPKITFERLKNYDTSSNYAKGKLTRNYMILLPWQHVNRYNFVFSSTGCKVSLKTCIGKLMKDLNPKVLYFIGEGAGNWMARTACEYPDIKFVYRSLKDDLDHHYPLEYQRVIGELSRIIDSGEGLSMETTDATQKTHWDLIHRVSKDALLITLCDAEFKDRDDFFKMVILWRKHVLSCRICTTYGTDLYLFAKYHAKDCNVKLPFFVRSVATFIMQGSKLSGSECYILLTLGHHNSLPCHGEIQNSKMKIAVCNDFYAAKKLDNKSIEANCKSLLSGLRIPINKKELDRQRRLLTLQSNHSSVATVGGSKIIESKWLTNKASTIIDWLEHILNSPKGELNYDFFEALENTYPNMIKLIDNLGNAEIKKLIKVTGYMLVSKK
As to the kind of experiment: biochemical. Type of data set: biochemical.

In data set [3] the target is SARS-CoV nsp14 (N7 MTase) (Severe acute respiratory syndrome coronavirus, UniProt P0C6X7). The format is biochemical.
A further data set deals with T3, Dengue virus NS5 MTase (Dengue virus type 2, UniProt P29990).
T3 construct: Dengue virus NS5 MTase: 500 nM
T3 sequence (P29990 2493-2755 limits assumed): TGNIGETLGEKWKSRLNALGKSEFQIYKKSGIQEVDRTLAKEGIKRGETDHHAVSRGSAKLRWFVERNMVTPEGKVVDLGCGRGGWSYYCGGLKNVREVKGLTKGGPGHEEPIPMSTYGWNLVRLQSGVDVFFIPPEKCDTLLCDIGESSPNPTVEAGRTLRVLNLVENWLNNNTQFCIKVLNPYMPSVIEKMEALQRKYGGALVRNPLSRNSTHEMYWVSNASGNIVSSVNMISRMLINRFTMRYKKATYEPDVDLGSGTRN
Description: biochemical.

The target in another data set is T4, Zika virus NS5 MTase (Zika virus, UniProt A0A024B7W1).
T4 construct: Zika virus NS5 MTase: 500 nM
T4 sequence (A0A024B7W1 2521-2785 limits assumed): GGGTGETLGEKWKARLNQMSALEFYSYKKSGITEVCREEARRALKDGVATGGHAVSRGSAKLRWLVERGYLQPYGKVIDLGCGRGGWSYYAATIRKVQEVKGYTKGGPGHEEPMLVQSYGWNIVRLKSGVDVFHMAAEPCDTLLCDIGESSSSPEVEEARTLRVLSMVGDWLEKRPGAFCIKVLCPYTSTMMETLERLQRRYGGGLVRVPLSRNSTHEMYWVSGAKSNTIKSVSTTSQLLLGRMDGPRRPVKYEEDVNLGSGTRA
As to the kind of experiment: biochemical.

Data set [4] concerns the target SARS polymerase complex (12HC/7HC8) (Severe acute respiratory syndrome coronavirus, UniProt P0C6X7). The format is biochemical.
In data set [5] the target is human N7 MTase (hN7 or RNMT) (Homo sapiens, UniProt O43148). Description: biochemical.
human N7 MTase (hN7 or RNMT), sequence (O43148 whole entry): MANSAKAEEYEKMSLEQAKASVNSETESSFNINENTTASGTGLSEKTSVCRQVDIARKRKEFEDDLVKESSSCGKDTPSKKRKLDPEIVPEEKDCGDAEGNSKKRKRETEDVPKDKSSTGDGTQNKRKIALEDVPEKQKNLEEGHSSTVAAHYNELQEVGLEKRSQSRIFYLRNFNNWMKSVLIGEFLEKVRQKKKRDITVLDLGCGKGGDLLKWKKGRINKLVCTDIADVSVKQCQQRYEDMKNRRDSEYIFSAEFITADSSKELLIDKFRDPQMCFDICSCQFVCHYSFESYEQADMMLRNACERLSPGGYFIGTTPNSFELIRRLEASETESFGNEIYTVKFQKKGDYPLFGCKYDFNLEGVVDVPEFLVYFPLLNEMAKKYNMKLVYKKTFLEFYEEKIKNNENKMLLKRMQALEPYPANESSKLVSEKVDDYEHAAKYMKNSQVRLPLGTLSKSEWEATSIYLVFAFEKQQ
The nature of another data set: in vitro. As to conditions: human.
For a further data set, the system named is EBOV. As to conditions: cited from earlier work.
A further data set concerns MARV. The settings on record: cited from earlier work.
Where [6] appears, read: read-out: MARV EC50 (50% inhibition of virus-induced CPE).
The mark [7] stands for this setting: Huh-7, read-out: EC50 against EBOV in Huh7 cells.
Setting [8] is: read-out: SUDV EC50 (50% inhibition of virus-induced CPE).
[9] abbreviates: read-out: EBOV EC50 (50% inhibition of virus-induced CPE).

Molecules are shown by their SMILES. Entries after “also recorded” stand apart in the source; their conditions may differ. Read-outs that look alike come from different tables or passages of the source. Bounds are passed on as bounds.

T1 sequence (P28887 1820-2008 limits assumed): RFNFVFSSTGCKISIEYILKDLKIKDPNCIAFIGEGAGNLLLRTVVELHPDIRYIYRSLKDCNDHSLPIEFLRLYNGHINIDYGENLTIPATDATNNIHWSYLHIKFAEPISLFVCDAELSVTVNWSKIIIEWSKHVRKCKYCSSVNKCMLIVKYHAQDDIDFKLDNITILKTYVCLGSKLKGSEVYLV
MERS polymerase complex (12HC/7HC8), sequence (K9N7C7 4378-5310 limits assumed): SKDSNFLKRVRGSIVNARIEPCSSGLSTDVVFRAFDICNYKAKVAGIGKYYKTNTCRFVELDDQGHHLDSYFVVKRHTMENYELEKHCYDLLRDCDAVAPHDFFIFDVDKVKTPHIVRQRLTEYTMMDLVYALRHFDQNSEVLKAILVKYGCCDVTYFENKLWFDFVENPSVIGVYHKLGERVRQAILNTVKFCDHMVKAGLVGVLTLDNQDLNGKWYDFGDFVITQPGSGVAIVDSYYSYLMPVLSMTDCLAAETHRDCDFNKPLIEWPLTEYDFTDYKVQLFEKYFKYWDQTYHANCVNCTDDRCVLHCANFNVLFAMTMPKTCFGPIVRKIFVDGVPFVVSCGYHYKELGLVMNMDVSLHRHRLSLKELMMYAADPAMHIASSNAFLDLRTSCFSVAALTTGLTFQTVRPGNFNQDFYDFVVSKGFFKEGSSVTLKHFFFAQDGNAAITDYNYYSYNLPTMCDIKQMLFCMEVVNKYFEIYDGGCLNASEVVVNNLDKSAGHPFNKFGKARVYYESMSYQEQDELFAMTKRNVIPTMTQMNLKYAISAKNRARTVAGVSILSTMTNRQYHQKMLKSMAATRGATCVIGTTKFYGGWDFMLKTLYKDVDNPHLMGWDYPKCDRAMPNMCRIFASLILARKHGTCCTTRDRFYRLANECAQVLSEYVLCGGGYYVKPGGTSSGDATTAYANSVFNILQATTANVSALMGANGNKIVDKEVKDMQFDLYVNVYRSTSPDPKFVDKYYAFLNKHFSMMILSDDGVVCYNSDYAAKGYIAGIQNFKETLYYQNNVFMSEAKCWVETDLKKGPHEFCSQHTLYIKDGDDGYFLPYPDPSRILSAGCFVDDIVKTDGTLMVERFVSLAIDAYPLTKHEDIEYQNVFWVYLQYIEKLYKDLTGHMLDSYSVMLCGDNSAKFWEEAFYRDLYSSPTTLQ
MERS polymerase complex (12HC/7HC8), sequence (K9N7C7 3846-3928 partner limits assumed): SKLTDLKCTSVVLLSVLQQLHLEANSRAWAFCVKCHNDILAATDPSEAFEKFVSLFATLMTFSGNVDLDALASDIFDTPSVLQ
MERS polymerase complex (12HC/7HC8), sequence (K9N7C7 3929-4127 partner limits assumed): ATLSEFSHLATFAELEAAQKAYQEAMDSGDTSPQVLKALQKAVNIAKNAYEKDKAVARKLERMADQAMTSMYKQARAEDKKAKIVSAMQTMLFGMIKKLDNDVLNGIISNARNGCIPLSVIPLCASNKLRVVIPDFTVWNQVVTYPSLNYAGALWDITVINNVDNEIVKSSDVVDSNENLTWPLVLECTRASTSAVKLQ

In general, EC50 refers to the concentration giving half of the maximal effect. Turning to `COc1nc(N)ncc1-c1cn(COCCO)cn1` [Compound 1], the results for the CC50 with HeLa cells and with Huh7 cells were above 100 µM and above 50 µM, respectively. The “Antiviral activity against MARV” value in the data set on MARV (Ci67) is listed as “no detectable activity”. Moreover, the half-maximal effective concentration (EC50) was above 100 µM with MARV (Ci67) (setting [6]); 2.2 ± 0.3 µM in data set [1] (Huh-7, read-out: EBOV EC50); 2.2 ± 0.3 µM in data set [1] (setting [7]); above 50 µM with Rift Valley Fever; above 50 µM in the data set on Lassa Virus; above 100 µM in the data set with SUDV (Gulu) (setting [8]). The EC50 with EBOV (Makona) (setting [9]) was above 100 µM. In data set [1], the “Antiviral activity against recombinant reporter EBOV” value is given as “exhibited antiviral activity”. In addition, the “Antiviral activity against SUDV” value in the data set with SUDV (Gulu) is “no detectable activity”. Further, the “Antiviral activity against EBOV” value in the data set on EBOV (Makona) was “no detectable activity”.
For orientation: IC50 means the midpoint of a concentration-inhibition curve. Low values mean greater potency, high ones weaker potency. `COc1nc(N)ncc1-c1cn(COCCOP(=O)(O)OP(=O)(O)OP(=O)(O)O)cn1` [Compound 2MR04]: the IC50 against RSV MTase was around 18 µM; against hMPV MTase, around 31 µM; against Dengue virus NS5 MTase, around 22 µM; against Zika virus NS5 MTase (IC50 Zika NS5-MTase), around 22 µM; at Zika virus NS5 MTase (IC50 in another testing (FIG. 15, effect on Zika Virus)) it was around 17 µM; in data set [5], around 49 µM. The “Inhibition of RSV MTase activity” value at RSV MTase was “strongly inhibiting”. Also, the “Reduction of product / oligonucleotide synthesis by MERS polymerase” value in data set [2] was “as effective as the 3′dGTP inhibitor; also recorded: as effective, not more effective, in reduction of oligonucleotide synthesis”. Further, at hMPV MTase, the “Inhibition of hMPV MTase activity” value was “strongly inhibiting; also recorded: inhibits”. In addition, the “Inhibition of SARS-nsp14 MTase activity” value in data set [3] is recorded as “inhibits”. The “Inhibition of Dengue virus NS5 MTase activity” value at Dengue virus NS5 MTase was “inhibits”. The “Inhibition of Zika virus MTase activity” value at Zika virus NS5 MTase is “inhibits”. The “Reduction of product / oligonucleotide synthesis by SARS polymerase” value in data set [4] was “comparable to the other inhibitors”. Moreover, the “Inhibition of RNMT (RNA Guanine-7 Methyltransferase)” value in data set [5] is reported as “not inhibited”.
On to `COc1nc(N)ncc1-c1cn(COCCOC(C)=O)cn1` [Compound 2], for which the CC50 with HeLa cells and in the data set “in vitro” was above 100 µM in each case. Besides, the figures for the 50% effective concentration (EC50) in the data set on MARV (Ci67) (setting [6]), in the data set with SUDV (Gulu) (setting [8]) and in the data set on EBOV (Makona) (setting [9]) were 70 ± 27 µM, 20 ± 10 µM and 44 ± 13 µM, respectively.
On to `CCC(CC)OC(=O)[C@@H](C)N[P@](=O)(OCCOCn1cnc(-c2cnc(N)nc2OC)c1)Oc1ccccc1` [Compound 3], for which the CC50 with HeLa cells is above 100 µM; in the data set on Huh7 cells it was above 50 µM. Moreover, in the data set with MARV (Ci67), the “Antiviral activity against MARV” value is recorded as “Activity against all three viruses was observed”. Moreover, the EC50 is 62.3 µM in the data set on MARV (Ci67) (read-out: EC50 MARV in Hela cells (FIGS. 3-5)); 62 ± 13 µM in the data set on MARV (Ci67) (setting [6]); 27.2 ± 2.2 µM in data set [1] (Huh-7, read-out: EBOV EC50); 27.2 ± 2.2 µM in data set [1] (setting [7]); above 50 µM with Rift Valley Fever; above 50 µM with Lassa Virus. For the same compound, the EC50 was 6.85 µM with SUDV (Gulu) (read-out: EC50 SUDV in Hela cells (FIGS. 3-5)); 7 ± 2 µM in the data set with SUDV (Gulu) (read-out: EC50 against SUDV in HeLa cells); 7 ± 2 µM in the data set on SUDV (Gulu) (setting [8]); 29 ± 9 µM in the data set with EBOV (Makona) (setting [9]); 29.1 µM in the data set with EBOV (Makona) (read-out: EC50 EBOV in Hela cells (FIGS. 3-5)); 29 ± 9 µM in the data set on EBOV (Makona) (read-out: EC50 against EBOV in HeLa cells). Besides, in [1], the “Antiviral activity against recombinant reporter EBOV” value is “active against EBOV at a similar concentration; also recorded: exhibited antiviral activity”. The “Potency of McGuigan prodrug relative to compound 1” value in [1] is reported as around 10 fold. In addition, the “Antiviral activity against SUDV” value in the data set on SUDV (Gulu) was “best activity against SUDV”. For the same compound, in the data set with EBOV (Makona), the “Antiviral activity against EBOV” value is reported as “Activity against all three viruses was observed”.
For the compound `CCC(CC)COC(=O)[C@H](C)N[P@](=O)(OC[C@H]1O[C@@](C#N)(c2ccc3c(N)ncnn23)[C@H](O)[C@@H]1O)Oc1ccccc1` [GS-5734], the “Activity against EBOV (literature, words)” value with EBOV is reported as “very potent activity”. In addition, the “Activity against MARV (literature, words)” value with MARV is on record as “very potent activity”.
